Assay results as given in ChEMBL document CHEMBL3885861, “Open TG-GATES”.

Organism: Rattus norvegicus
Assay: Open TG-GATES - Regimen: Daily Repeat
Format: toxicity, organism-based, Sprague-Dawley
Design: regimen Daily Repeat, gender Male, age 6 weeks
Details: in vivo, po, 1 mg/kg, route gavage, dose level Low; for APTT / Bas / Eos / Fbg / Hb / Ht / Lym / MCH / MCHC / MCV / Mono / Neu / PT / Plat / RBC / Ret / WBC: tissue Blood
[1] = 72 h, tissue Kidney, time 3 day
[2] = 72 h, tissue Plasma, time 3 day

Q: How did the TERMINAL_BW (72 h, time 3 day) turn out when `O=NN(CCCl)C(=O)NC1CCCCC1` [LOMUSTINE] was run?
A: 228.6 g

Q: What about the APTT (72 h, time 3 day) of the same compound?
A: 15.3 s

Q: What about the Bas (72 h, time 3 day) of the same compound?
A: 0%

Q: What about the Eos (72 h, time 3 day) of the same compound?
A: 0.8%

Q: What about the Fbg (72 h, time 3 day) of the same compound?
A: 224.2 mg/dL

Q: What about the Hb (72 h, time 3 day) of the same compound?
A: 12.9 g/dL

Q: And the Ht (72 h, time 3 day)?
A: 38.5%

Q: What about the Lym (72 h, time 3 day) of the same compound?
A: 81.2%

Q: And the MCH (72 h, time 3 day)?
A: 21.6 pg

Q: What about the MCHC (72 h, time 3 day) of the same compound?
A: 33.4%

Q: What about the MCV (72 h, time 3 day) of the same compound?
A: 64.8 fL

Q: And the Mono (72 h, time 3 day)?
A: 7.6%

Q: What about the Neu (72 h, time 3 day) of the same compound?
A: 10.2%

Q: And the PT (72 h, time 3 day)?
A: 11.8 s

Q: What about the Plat (72 h, time 3 day) of the same compound?
A: 108.2 x10_4/uL

Q: What about the RBC (72 h, time 3 day) of the same compound?
A: 594.4 x10_4/ul

Q: And the Ret (72 h, time 3 day)?
A: 8.5%

Q: What about the WBC (72 h, time 3 day) of the same compound?
A: 121.5 x10_2/uL

Q: And the KIDNEY_L [1]?
A: 1.1 g

Q: And the KIDNEY_R [1]?
A: 1.1 g

Q: What about the KIDNEY_TOTAL [1] of the same compound?
A: 2.2 g

Q: And the LIVER (72 h, tissue Liver, time 3 day)?
A: 11.3 g

Q: What about the A/G [2] of the same compound?
A: 2.2

Q: What about the ALP [2] of the same compound?
A: 863 IU/L

Q: And the ALT [2]?
A: 30 IU/L

Q: What about the AST [2] of the same compound?
A: 62 IU/L

Q: And the BUN [2]?
A: 16 mg/dL

Q: What about the CRE [2] of the same compound?
A: 0.5 mg/dL

Q: What about the Ca [2] of the same compound?
A: 11.1 mg/dL

Q: What about the Cl [2] of the same compound?
A: 105 meq/L

Q: And the DBIL [2]?
A: 0.022 mg/dL

Q: What about the GLC [2] of the same compound?
A: 188 mg/dL

Q: What about the IP [2] of the same compound?
A: 8.1 mg/dL

Q: What about the K [2] of the same compound?
A: 4.9 meq/L

Q: What about the LDH [2] of the same compound?
A: 78 IU/L

Q: What about the Na [2] of the same compound?
A: 138.6 meq/L

Q: What about the PL [2] of the same compound?
A: 144 mg/dL

Q: What about the RALB [2] of the same compound?
A: 3.9 g/dL

Q: What about the TBIL [2] of the same compound?
A: 0.3 mg/dL

Q: And the TC [2]?
A: 79.2 mg/dL

Q: And the TG [2]?
A: 85.8 mg/dL

Q: And the TP [2]?
A: 5.7 g/dL

Q: What about the gamma-GTP [2] of the same compound?
A: 1 IU/L

Q: And the TERMINAL_BW ([…], time 7 day)?
A: 255.7 g

Q: What about the TERMINAL_BW ([…], time 14 day) of the same compound?
A: 313 g

Q: And the TERMINAL_BW ([…], time 28 day)?
A: 386.4 g

Q: What about the APTT ([…], time 7 day) of the same compound?
A: 16.6 s

Q: And the Bas ([…], time 7 day)?
A: 0%

Q: What about the Eos ([…], time 7 day) of the same compound?
A: 0.6%

Q: What about the Fbg ([…], time 7 day) of the same compound?
A: 235.2 mg/dL

Q: And the Hb ([…], time 7 day)?
A: 13.3 g/dL

Q: What about the Ht ([…], time 7 day) of the same compound?
A: 39.5%

Q: What about the Lym ([…], time 7 day) of the same compound?
A: 80%

Q: And the MCH ([…], time 7 day)?
A: 21.3 pg

Q: What about the MCHC ([…], time 7 day) of the same compound?
A: 33.6%

Q: What about the MCV ([…], time 7 day) of the same compound?
A: 63.6 fL

Q: And the Mono ([…], time 7 day)?
A: 7.4%

Q: What about the Neu ([…], time 7 day) of the same compound?
A: 12.4%

Q: And the PT ([…], time 7 day)?
A: 11.7 s

Q: What about the Plat ([…], time 7 day) of the same compound?
A: 109.6 x10_4/uL

Q: And the RBC ([…], time 7 day)?
A: 621.2 x10_4/ul

Q: And the Ret ([…], time 7 day)?
A: 6.3%

Q: What about the WBC ([…], time 7 day) of the same compound?
A: 117.4 x10_2/uL

Q: And the APTT ([…], time 14 day)?
A: 16.9 s

Q: And the Bas ([…], time 14 day)?
A: 0%

Q: And the Eos ([…], time 14 day)?
A: 0.6%

Q: And the Fbg ([…], time 14 day)?
A: 235 mg/dL

Q: What about the Hb ([…], time 14 day) of the same compound?
A: 13.9 g/dL

Q: What about the Ht ([…], time 14 day) of the same compound?
A: 41.4%

Q: And the Lym ([…], time 14 day)?
A: 83.4%

Q: And the MCH ([…], time 14 day)?
A: 20.8 pg

Q: And the MCHC ([…], time 14 day)?
A: 33.6%

Q: And the MCV ([…], time 14 day)?
A: 61.9 fL

Q: What about the Mono ([…], time 14 day) of the same compound?
A: 4.8%

Q: What about the Neu ([…], time 14 day) of the same compound?
A: 11.4%

Q: And the PT ([…], time 14 day)?
A: 11.5 s

Q: And the Plat ([…], time 14 day)?
A: 119.3 x10_4/uL

Q: And the RBC ([…], time 14 day)?
A: 669.6 x10_4/ul

Q: And the Ret ([…], time 14 day)?
A: 5.5%

Q: What about the WBC ([…], time 14 day) of the same compound?
A: 116.8 x10_2/uL

Q: And the APTT ([…], time 28 day)?
A: 16.6 s

Q: And the Bas ([…], time 28 day)?
A: 0%

Q: And the Eos ([…], time 28 day)?
A: 1.2%

Q: What about the Fbg ([…], time 28 day) of the same compound?
A: 225 mg/dL

Q: And the Hb ([…], time 28 day)?
A: 15.1 g/dL

Q: And the Ht ([…], time 28 day)?
A: 45.4%
